Laboratory results as given in the NIST ThermoML archive (doi:10.1021/je060271a).

Settings: 303.14 K, Liquid, Vibrating tube method

CCCCCCC(=O)OCC(COC(=O)CCCCCC)(COC(=O)CCCCCC)COC(=O)CCCCCC [pentaerythritol tetraheptanoate]
Settings | mass density [kg/m3]
8357.2 kPa | 975.8
8381 kPa | 975.9
8405.1 kPa | 976
8433.4 kPa | 976
8458.1 kPa | 975.9
8483.1 kPa | 976.1
8509.4 kPa | 976
8533.9 kPa | 976.1
8563.4 kPa | 976
8587.9 kPa | 976.2
8617.9 kPa | 976
8643.4 kPa | 976.1
8668.9 kPa | 976.1
8700 kPa | 976.2
8725.8 kPa | 976.1
8751.7 kPa | 976.1
8777.7 kPa | 976.2
8810 kPa | 976.2
8838.3 kPa | 976.2
8865.8 kPa | 976.3
8892.5 kPa | 976.1
8925.3 kPa | 976.3
8952.3 kPa | 976.3
8979 kPa | 976.3
9006.6 kPa | 976.4
9039.6 kPa | 976.3
9067.1 kPa | 976.3
9100.6 kPa | 976.4
9129 kPa | 976.4
9157.8 kPa | 976.5
9191.8 kPa | 976.5
9221.4 kPa | 976.5
9250.2 kPa | 976.4
9279.1 kPa | 976.4
9315 kPa | 976.4
9344.1 kPa | 976.6
9374.1 kPa | 976.5
9409.9 kPa | 976.5
9439.9 kPa | 976.6
9476.4 kPa | 976.6
9507.3 kPa | 976.7
9537.9 kPa | 976.6
9575 kPa | 976.6
9606.3 kPa | 976.8
9638.6 kPa | 976.8
9670.4 kPa | 976.7
9708.9 kPa | 976.7
9741.1 kPa | 976.9
9780.3 kPa | 976.8
9813.2 kPa | 976.9
9846 kPa | 976.7
9879 kPa | 976.9
9918.8 kPa | 976.9
9952.1 kPa | 976.9
9992 kPa | 977
10026 kPa | 976.8
10061 kPa | 976.9
10103 kPa | 977.1
10139 kPa | 977
10174 kPa | 977
10209 kPa | 977.2
10252 kPa | 977.1
10288 kPa | 977
10325 kPa | 977.2
10369 kPa | 977.2
10405 kPa | 977.1
10449 kPa | 977.2
10486 kPa | 977.2
10525 kPa | 977.2
10571 kPa | 977.3
10610 kPa | 977.3
10649 kPa | 977.3
10688 kPa | 977.4
10736 kPa | 977.4
10775 kPa | 977.3
10823 kPa | 977.4
10864 kPa | 977.4
10906 kPa | 977.6
10949 kPa | 977.4
11001 kPa | 977.6
11045 kPa | 977.5
11086 kPa | 977.5
11124 kPa | 977.6
11150 kPa | 977.6
11180 kPa | 977.6
11206 kPa | 977.7
11232 kPa | 977.6
11290 kPa | 977.6
11316 kPa | 977.6
11343 kPa | 977.8
11375 kPa | 977.6
11402 kPa | 977.7
11490 kPa | 977.7
11519 kPa | 977.9
11574 kPa | 977.9
11609 kPa | 978
11637 kPa | 977.8
11668 kPa | 977.9
11691 kPa | 977.8
11715 kPa | 977.9
11767 kPa | 978.1
11791 kPa | 978
11816 kPa | 978
11847 kPa | 978
11871 kPa | 977.9
11896 kPa | 978.1
11920 kPa | 978.1
11950 kPa | 978
11975 kPa | 978.1
12000 kPa | 978.2
12031 kPa | 978.2
12057 kPa | 978
12083 kPa | 978.2
12110 kPa | 978.1
12130 kPa | 978.2
12151 kPa | 978.2
12176 kPa | 978.3
12197 kPa | 978.3
12218 kPa | 978.2
12240 kPa | 978.3
12266 kPa | 978.3
12285 kPa | 978.3
12300 kPa | 978.3
12304 kPa | 978.3
12305 kPa | 978.4
12331 kPa | 978.3
12497 kPa | 978.4
12525 kPa | 978.5
12546 kPa | 978.5
12565 kPa | 978.5
12583 kPa | 978.5
12606 kPa | 978.4
12624 kPa | 978.5
12646 kPa | 978.5
12665 kPa | 978.5
12684 kPa | 978.4
12707 kPa | 978.5
12725 kPa | 978.6
12748 kPa | 978.5
12768 kPa | 978.7
12787 kPa | 978.5
12806 kPa | 978.5
12829 kPa | 978.6
12849 kPa | 978.6
12868 kPa | 978.8
12887 kPa | 978.6
12911 kPa | 978.6
12930 kPa | 978.7
12950 kPa | 978.7
12974 kPa | 978.7
12993 kPa | 978.7
13017 kPa | 978.8
13037 kPa | 978.7
13057 kPa | 978.8
13081 kPa | 978.8
13101 kPa | 978.8
13145 kPa | 978.7
13166 kPa | 978.8
13186 kPa | 978.9
13211 kPa | 978.9
13231 kPa | 978.9
13252 kPa | 978.8
13277 kPa | 978.9
13298 kPa | 978.9
13319 kPa | 978.9
13340 kPa | 978.9
13366 kPa | 979
13387 kPa | 978.9
13408 kPa | 978.9
13429 kPa | 979.1
13454 kPa | 979
13476 kPa | 979
13501 kPa | 979
13523 kPa | 979.1
13544 kPa | 979.1
13592 kPa | 979
13615 kPa | 979
13637 kPa | 979.1
13660 kPa | 979.1
13686 kPa | 979.2
13708 kPa | 979.1
13730 kPa | 979.1
13757 kPa | 979.1
13779 kPa | 979.3
13802 kPa | 979.2
13828 kPa | 979.3
13851 kPa | 979.2
13949 kPa | 979.3
13996 kPa | 979.4
14023 kPa | 979.3
14047 kPa | 979.3
14070 kPa | 979.5
14098 kPa | 979.3
14121 kPa | 979.4
14145 kPa | 979.5
14174 kPa | 979.4
14198 kPa | 979.4
14247 kPa | 979.4
14276 kPa | 979.4
14300 kPa | 979.4
14353 kPa | 979.5
14378 kPa | 979.5
14402 kPa | 979.5
14432 kPa | 979.5
14700 kPa | 979.8
14725 kPa | 979.9
14756 kPa | 979.8
14782 kPa | 979.7
14808 kPa | 979.7
15038 kPa | 979.8
15065 kPa | 980.1
15092 kPa | 980
15119 kPa | 979.9
15152 kPa | 980.1
15207 kPa | 980
15241 kPa | 980
15297 kPa | 980
15386 kPa | 980.1
15420 kPa | 980.1
15448 kPa | 980.2
15477 kPa | 980.2
15539 kPa | 980.1
15568 kPa | 980.2
15602 kPa | 980.2
